Source: ChEMBL document CHEMBL1201862, “PubChem BioAssay data set” (2004)
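All cell lines were grown in 96-well plates and treated with compound for 48 hours. GI50: concentration for 50% inhibition of growth.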 The source made the active and inactive calls. Rule as the data show it: active = GI50 up to about 1.1 µM and inactive = higher.

Columns and labels:
Test in all cases: DTP human tumour cell line panel, 48 h
[1] = test system: HCC 2998
[2] = test system: COLO 205
[3] = test system: TK-10
[4] = test system: IGROV-1
[5] = test system: M14
[6] = test system: A549
[7] = test system: EKVX
[8] = test system: U-251
[9] = test system: RXF 393
[10] = test system: 786-0
[11] = test system: OVCAR-4
[12] = test system: HL-60
[13] = test system: DMS-114
[14] = test system: SK-MEL-2
[15] = test system: A498
[16] = test system: CAKI-1
[17] = test system: MDA-MB-435
[18] = test system: BT-549
[19] = test system: NCI/ADR-RES
[20] = test system: T47D

SMILES	GI50 [1]	GI50 [2]	GI50 [3]	GI50 [4]	GI50 [5]	GI50 [6]	GI50 [7]	GI50 [8]	GI50 [9]	GI50 [10]	GI50 [11]	GI50 [12]	GI50 [13]	GI50 [14]	GI50 [15]	GI50 [16]	GI50 [17]	GI50 [18]	GI50 [19]	GI50 [20]
Cc1cccc(NC2=NC(=O)C(CC(=O)Nc3cccc(C)c3C)S2)c1 (configuration not stated)	> 100 µM (inactive)	> 100 µM (inactive)	> 100 µM (inactive)	> 100 µM (inactive)	> 100 µM (inactive)	> 100 µM (inactive)	> 100 µM (inactive)	> 100 µM (inactive)	> 100 µM (inactive)	> 100 µM (inactive)	> 100 µM (inactive)	35.9 µM (inactive)	63.5 µM (inactive)	> 100 µM (inactive)	–	–	–	–	–	–
CC#COS(=O)(=O)c1ccc(C)cc1	> 100 µM (inactive)	39.9 µM (inactive)	> 100 µM (inactive)	> 100 µM (inactive)	35.6 µM (inactive)	44.3 µM (inactive)	53.5 µM (inactive)	> 100 µM (inactive)	–	44.4 µM (inactive)	58.5 µM (inactive)	26.4 µM (inactive)	32.7 µM (inactive)	> 100 µM (inactive)	> 10 µM (inactive)	> 100 µM (inactive)	–	–	–	–
O=C1C2=C(c3ccccc31)C(c1ccccc1Cl)N1C(=O)CSC1=N2 (configuration not stated)	> 100 µM (inactive)	> 100 µM (inactive)	> 100 µM (inactive)	> 100 µM (inactive)	> 100 µM (inactive)	> 100 µM (inactive)	> 100 µM (inactive)	> 100 µM (inactive)	–	> 100 µM (inactive)	60.1 µM (inactive)	45.6 µM (inactive)	53.8 µM (inactive)	> 100 µM (inactive)	> 100 µM (inactive)	> 100 µM (inactive)	–	–	–	–
O=C(CC/C(CC(=O)c1ccc(Cl)cc1)=N/O)Nc1ccc(Cl)c(Cl)c1	–	> 100 µM (inactive)	> 100 µM (inactive)	47.6 µM (inactive)	> 100 µM (inactive)	> 100 µM (inactive)	10.3 µM (inactive)	> 100 µM (inactive)	–	> 100 µM (inactive)	43.4 µM (inactive)	> 100 µM (inactive)	65.3 µM (inactive)	38.3 µM (inactive)	> 100 µM (inactive)	86.1 µM (inactive)	–	–	–	–
Cc1ccc(S(=O)(=O)C2=c3nc4ccccc4cc3=C3C(=O)c4ccccc4C(=O)C32)cc1 (configuration not stated)	> 100 µM (inactive)	> 100 µM (inactive)	> 100 µM (inactive)	> 100 µM (inactive)	> 100 µM (inactive)	> 100 µM (inactive)	> 100 µM (inactive)	> 100 µM (inactive)	–	> 100 µM (inactive)	> 100 µM (inactive)	> 100 µM (inactive)	> 100 µM (inactive)	> 100 µM (inactive)	35 µM (inactive)	> 100 µM (inactive)	–	–	–	–
Nc1nc(N)c(CCCCc2ccccc2)c(/C=C/c2ccc([N+](=O)[O-])cc2)n1	2.65 µM (inactive)	3.39 µM (inactive)	1.8 µM (inactive)	2.8 µM (inactive)	1.89 µM (inactive)	0.388 µM (active)	4.44 µM (inactive)	2.13 µM (inactive)	–	0.785 µM (active)	3.94 µM (inactive)	1.35 µM (inactive)	1.45 µM (inactive)	2.79 µM (inactive)	–	3.92 µM (inactive)	–	–	–	–
Nc1ccc2ncc(Nc3ccc(F)cc3)nc2c1	> 100 µM (inactive)	> 100 µM (inactive)	> 100 µM (inactive)	–	> 100 µM (inactive)	> 100 µM (inactive)	> 100 µM (inactive)	> 100 µM (inactive)	–	> 100 µM (inactive)	> 100 µM (inactive)	> 100 µM (inactive)	85.3 µM (inactive)	> 10 µM (inactive)	–	> 100 µM (inactive)	–	–	–	–
CC(=O)Oc1c(-c2ccccc2)[nH]c2cc([N+](=O)[O-])c(/C(Cl)=C/c3ccccc3)cc12	4.6 µM (inactive)	4 µM (inactive)	19.8 µM (inactive)	9.46 µM (inactive)	7.73 µM (inactive)	6.15 µM (inactive)	8.53 µM (inactive)	4.52 µM (inactive)	–	11.2 µM (inactive)	5.42 µM (inactive)	2.84 µM (inactive)	2.17 µM (inactive)	9.57 µM (inactive)	2.88 µM (inactive)	10.7 µM (inactive)	–	–	–	–
COc1ccccc1C1c2cc3c(cc2OC(N2CCCC2)C1C)OCO3 (configuration not stated)	15.8 µM (inactive)	18 µM (inactive)	18.5 µM (inactive)	19.3 µM (inactive)	13.7 µM (inactive)	18.4 µM (inactive)	18.3 µM (inactive)	18.8 µM (inactive)	3.76 µM (inactive)	16.8 µM (inactive)	21.6 µM (inactive)	14.2 µM (inactive)	–	14.8 µM (inactive)	15.2 µM (inactive)	9.84 µM (inactive)	12.4 µM (inactive)	16.8 µM (inactive)	18.5 µM (inactive)	13.9 µM (inactive)
Cc1ccc(NC(=O)c2cccc(OP(=O)(Nc3ccc(C)cc3)Nc3ccc(C)cc3)c2)cc1	5.21 µM (inactive)	2.32 µM (inactive)	7.52 µM (inactive)	15.1 µM (inactive)	3.21 µM (inactive)	3.46 µM (inactive)	7.94 µM (inactive)	6.58 µM (inactive)	1.91 µM (inactive)	19.9 µM (inactive)	14 µM (inactive)	9.95 µM (inactive)	–	15.3 µM (inactive)	18.1 µM (inactive)	12.8 µM (inactive)	7.48 µM (inactive)	22.2 µM (inactive)	12 µM (inactive)	5.53 µM (inactive)
CO/N=C(\C)c1ccc(Nc2c3ccccc3nc3occc23)cc1	0.322 µM (active)	0.302 µM (active)	1.21 µM (inactive)	0.233 µM (active)	0.397 µM (active)	0.643 µM (active)	3.74 µM (inactive)	0.522 µM (active)	0.0813 µM (active)	0.74 µM (active)	0.902 µM (active)	0.254 µM (active)	–	0.244 µM (active)	0.773 µM (active)	0.318 µM (active)	0.0451 µM (active)	0.845 µM (active)	0.181 µM (active)	0.522 µM (active)
CCCC[C@H]1C(=O)O[C@H](C)[C@H](NC(=O)c2cccc(NC=O)c2OC)C(=O)O[C@@H](C)[C@@H]1OC(=O)C(C)CC.CCCC[C@H]1C(=O)O[C@H](C)[C@H](NC(=O)c2cccc(NC=O)c2OC)C(=O)O[C@@H](C)[C@@H]1OC(=O)CC(C)C (some centres not stated)	29 µM (inactive)	11.7 µM (inactive)	12.9 µM (inactive)	7.1 µM (inactive)	14.6 µM (inactive)	10.3 µM (inactive)	11 µM (inactive)	9.46 µM (inactive)	14.1 µM (inactive)	12.1 µM (inactive)	7.94 µM (inactive)	10.6 µM (inactive)	–	6.07 µM (inactive)	8.81 µM (inactive)	7.87 µM (inactive)	10.3 µM (inactive)	16.8 µM (inactive)	23 µM (inactive)	14 µM (inactive)
COC(OC)(c1ccccc1)C(I)I	23.1 µM (inactive)	8.69 µM (inactive)	13.3 µM (inactive)	13.9 µM (inactive)	5.37 µM (inactive)	18.5 µM (inactive)	12 µM (inactive)	16.5 µM (inactive)	2.32 µM (inactive)	8.36 µM (inactive)	14.2 µM (inactive)	2 µM (inactive)	–	13.8 µM (inactive)	> 10 µM (inactive)	11.8 µM (inactive)	4.37 µM (inactive)	11 µM (inactive)	16.3 µM (inactive)	19.2 µM (inactive)
O=C1C=C(N2CCCC2)C=C(N2CCCC2)C1	> 100 µM (inactive)	> 100 µM (inactive)	> 100 µM (inactive)	> 100 µM (inactive)	> 100 µM (inactive)	> 100 µM (inactive)	> 100 µM (inactive)	> 100 µM (inactive)	> 100 µM (inactive)	> 100 µM (inactive)	–	> 100 µM (inactive)	79.6 µM (inactive)	> 100 µM (inactive)	–	> 100 µM (inactive)	–	–	–	–
CC(=O)NC1C(O)C(O)C(CO)OC1n1nc(SCc2ccccc2)c(=O)[nH]c1=O (configuration not stated)	> 100 µM (inactive)	> 100 µM (inactive)	> 100 µM (inactive)	> 100 µM (inactive)	> 100 µM (inactive)	> 100 µM (inactive)	> 100 µM (inactive)	> 100 µM (inactive)	> 100 µM (inactive)	> 100 µM (inactive)	> 100 µM (inactive)	> 100 µM (inactive)	–	> 100 µM (inactive)	> 100 µM (inactive)	> 100 µM (inactive)	> 100 µM (inactive)	> 100 µM (inactive)	> 100 µM (inactive)	> 100 µM (inactive)
O=C(/C=C/c1ccccc1Br)c1ccccc1	2.89 µM (inactive)	14.5 µM (inactive)	2.17 µM (inactive)	2.99 µM (inactive)	6.61 µM (inactive)	12 µM (inactive)	13 µM (inactive)	1.56 µM (inactive)	7.82 µM (inactive)	2.07 µM (inactive)	1.77 µM (inactive)	1.35 µM (inactive)	–	15.7 µM (inactive)	3.39 µM (inactive)	2.96 µM (inactive)	2.46 µM (inactive)	13.6 µM (inactive)	6.08 µM (inactive)	4.52 µM (inactive)
